Reference: publication PMC5218480 (PLoS ONE, 2017)

Test system: MV-4-11 cells
Experiment: Gene expression microarray analysis (Affymetrix PrimeView) and GSEA
Type: cell-based, human
Design: RFU PODN (11730768_x_at) / Fold change /veh PODN (11730768_x_at) / RFU LINC00158 (11744669_a_at) / Fold change /veh LINC00158 (11744669_a_at) / RFU DUSP10 (11751237_a_at) / Fold change /veh DUSP10 (11751237_a_at) / RFU ID3 (11757404_x_at) / Fold change /veh ID3 (11757404_x_at) / RFU PLEKHG5 (11737974_s_at) / Fold change /veh PLEKHG5 (11737974_s_at) / RFU LRRC4B (11730491_at) / Fold change /veh LRRC4B (11730491_at) / RFU GIMAP4 (11747438_a_at) / Fold change /veh GIMAP4 (11747438_a_at) / RFU KRT8 (11758183_x_at) / Fold change /veh KRT8 (11758183_x_at) / RFU CNN1 (11734310_a_at) / Fold change /veh CNN1 (11734310_a_at) / RFU VPS37D (11726825_at) / Fold change /veh VPS37D (11726825_at) / RFU C10orf10 (11716522_x_at) / Fold change /veh C10orf10 (11716522_x_at) / RFU KIR2DL2 /// KIR2DL4 /// KIR2DL5A /// KIR2DL5B /// KIR2DS1 /// KIR2DS2 /// KIR2DS3 /// KIR2DS4 /// KIR3DL3 /// KIR3DL3 /// KIR3DS1 (11738374_at) / Fold change /veh KIR2DL2 /// KIR2DL4 /// KIR2DL5A /// KIR2DL5B /// KIR2DS1 /// KIR2DS2 /// KIR2DS3 /// KIR2DS4 /// KIR3DL3 /// KIR3DL3 /// KIR3DS1 (11738374_at) / RFU C1QL1 (11718748_at) / Fold change /veh C1QL1 (11718748_at) / RFU TMPRSS4 (11747572_a_at) / Fold change /veh TMPRSS4 (11747572_a_at) / RFU HAMP (11756126_x_at) / Fold change /veh HAMP (11756126_x_at) / RFU RNFT2 (11725882_a_at) / Fold change /veh RNFT2 (11725882_a_at) / RFU NR4A2 (11747474_a_at) / Fold change /veh NR4A2 (11747474_a_at) / RFU ABCC12 (11746883_a_at) / Fold change /veh ABCC12 (11746883_a_at) / RFU TMEM136 (11760407_x_at) / Fold change /veh TMEM136 (11760407_x_at) / RFU CLDN22 /// WWC2 (11732394_at) / Fold change /veh CLDN22 /// WWC2 (11732394_at) / RFU HLA-DPB1 (11760878_x_at) / Fold change /veh HLA-DPB1 (11760878_x_at) / RFU SPINT1 (11716480_a_at) / Fold change /veh SPINT1 (11716480_a_at) / RFU GAP43 (11754022_s_at) / Fold change /veh GAP43 (11754022_s_at) / RFU A4GNT (11735810_at) / Fold change /veh A4GNT (11735810_at) / RFU PRB3 (11715151_x_at) / Fold change /veh PRB3 (11715151_x_at) / RFU TUBB4B (11761932_at) / Fold change /veh TUBB4B (11761932_at) / RFU CAPN14 (11732068_a_at) / Fold change /veh CAPN14 (11732068_a_at) / RFU TMCC2 (11721928_a_at) / Fold change /veh TMCC2 (11721928_a_at) / RFU IRGQ (11745062_a_at) / Fold change /veh IRGQ (11745062_a_at) / RFU FAM174B (11720279_a_at) / Fold change /veh FAM174B (11720279_a_at) / RFU TMPRSS4 (11748680_a_at) / Fold change /veh TMPRSS4 (11748680_a_at) / RFU FAM212B (11763350_a_at) / Fold change /veh FAM212B (11763350_a_at) / RFU PLEKHG5 (11743358_a_at) / Fold change /veh PLEKHG5 (11743358_a_at) / RFU ZSCAN30 (11745921_a_at) / Fold change /veh ZSCAN30 (11745921_a_at) / RFU CMKLR1 (11741424_a_at) / Fold change /veh CMKLR1 (11741424_a_at) / RFU LOC101060620 /// MAPK8IP1 (11723275_at) / Fold change /veh LOC101060620 /// MAPK8IP1 (11723275_at) / RFU SPTSSB (11747773_x_at) / Fold change /veh SPTSSB (11747773_x_at) / RFU PRSS12 (11739890_at) / Fold change /veh PRSS12 (11739890_at) / RFU BIN1 (11741810_x_at) / Fold change /veh BIN1 (11741810_x_at) / RFU WNT11 (11732464_a_at) / Fold change /veh WNT11 (11732464_a_at) / RFU C10orf10 (11716521_a_at) / Fold change /veh C10orf10 (11716521_a_at) / RFU C5orf56 (11738089_at) / Fold change /veh C5orf56 (11738089_at) / RFU CYB561 (11721691_x_at) / Fold change /veh CYB561 (11721691_x_at) / RFU ANKRD19P (11752326_a_at) / Fold change /veh ANKRD19P (11752326_a_at) / RFU OR2T12 /// OR2T33 /// OR2T8 (11738714_s_at) / Fold change /veh OR2T12 /// OR2T33 /// OR2T8 (11738714_s_at) / RFU VCAN (11748164_a_at) / Fold change /veh VCAN (11748164_a_at) / RFU JSRP1 (11732532_at) / Fold change /veh JSRP1 (11732532_at) / RFU KRTAP10-11 (11738290_x_at) / Fold change /veh KRTAP10-11 (11738290_x_at) / RFU MYO3A (11730013_a_at) / Fold change /veh MYO3A (11730013_a_at) / RFU EBF3 (11725865_a_at) / Fold change /veh EBF3 (11725865_a_at) / RFU CAMK2N1 (11719241_x_at) / Fold change /veh CAMK2N1 (11719241_x_at) / RFU C5orf56 (11738088_a_at) / Fold change /veh C5orf56 (11738088_a_at) / RFU OLFML3 (11715873_a_at) / Fold change /veh OLFML3 (11715873_a_at) / RFU LOC100653217 /// NTM (11731650_a_at) / Fold change /veh LOC100653217 /// NTM (11731650_a_at) / RFU MAPK11 (11762145_a_at) / Fold change /veh MAPK11 (11762145_a_at) / RFU FIZ1 (11724087_x_at) / Fold change /veh FIZ1 (11724087_x_at) / RFU OASL (11726364_x_at) / Fold change /veh OASL (11726364_x_at) / RFU SOX15 (11748057_x_at) / Fold change /veh SOX15 (11748057_x_at) / RFU CD79A (11719716_a_at) / Fold change /veh CD79A (11719716_a_at) / RFU HIST1H1D (11736915_at) / Fold change /veh HIST1H1D (11736915_at) / RFU CASKIN2 (11723855_a_at) / Fold change /veh CASKIN2 (11723855_a_at) / RFU LOC730098 (11760151_x_at) / Fold change /veh LOC730098 (11760151_x_at) / RFU OR4N2 (11742367_at) / Fold change /veh OR4N2 (11742367_at) / RFU PRRT2 (11749266_a_at) / Fold change /veh PRRT2 (11749266_a_at) / RFU SNX32 (11753110_a_at) / Fold change /veh SNX32 (11753110_a_at) / RFU CDHR5 (11726645_a_at) / Fold change /veh CDHR5 (11726645_a_at) / RFU RCAN1 (11760418_a_at) / Fold change /veh RCAN1 (11760418_a_at) / RFU FAM167A (11723789_a_at) / Fold change /veh FAM167A (11723789_a_at) / RFU FAM26E (11764081_at) / Fold change /veh FAM26E (11764081_at) / RFU ISYNA1 (11749810_s_at) / Fold change /veh ISYNA1 (11749810_s_at) / RFU ACY1 (11761880_at) / Fold change /veh ACY1 (11761880_at) / RFU 11764098_at / Fold change /veh 11764098_at / RFU SAMD14 (11745864_x_at) / Fold change /veh SAMD14 (11745864_x_at) / RFU NPB (11741838_a_at) / Fold change /veh NPB (11741838_a_at) / RFU TMPRSS6 (11731388_a_at) / Fold change /veh TMPRSS6 (11731388_a_at) / RFU KRTAP10-2 (11738614_at) / Fold change /veh KRTAP10-2 (11738614_at) / RFU ARHGAP8 /// PRR5-ARHGAP8 (11727945_x_at) / Fold change /veh ARHGAP8 /// PRR5-ARHGAP8 (11727945_x_at) / RFU KRTAP5-7 /// NADSYN1 (11734609_at) / Fold change /veh KRTAP5-7 /// NADSYN1 (11734609_at) / RFU RASL12 (11751679_a_at) / Fold change /veh RASL12 (11751679_a_at) / RFU CDKN2B (11736163_a_at) / Fold change /veh CDKN2B (11736163_a_at) / RFU PRF1 (11729649_at) / Fold change /veh PRF1 (11729649_at) / RFU, ZNF638 /// ZNF638-IT1 / Fold change vs veh, ZNF638 /// ZNF638-IT1 / RFU, PANK3 / Fold change vs veh, PANK3 / RFU, SH3YL1 / Fold change vs veh, SH3YL1 / RFU, ZEB2 / Fold change vs veh, ZEB2 / RFU, NRIP1 / Fold change vs veh, NRIP1 / RFU, PTTG1IP / Fold change vs veh, PTTG1IP / RFU, CAPN2 / Fold change vs veh, CAPN2 / RFU, MED14 / Fold change vs veh, MED14 / RFU, SNORA58 / Fold change vs veh, SNORA58 / RFU, C1orf63 / Fold change vs veh, C1orf63 / RFU, LRRFIP1 / Fold change vs veh, LRRFIP1 / RFU, NDUFAF7 / Fold change vs veh, NDUFAF7 / RFU, SLC12A2 / Fold change vs veh, SLC12A2 / RFU, IBTK / Fold change vs veh, IBTK / RFU, ESF1 / Fold change vs veh, ESF1 / Fold change vs veh, TMEM50B / RFU, TAOK1 / Fold change vs veh, TAOK1 / RFU, ACBD3 / Fold change vs veh, ACBD3 / RFU, TMA16 / Fold change vs veh, TMA16 / RFU, RWDD3 / Fold change vs veh, RWDD3 / RFU, BCAT1 / Fold change vs veh, BCAT1 / RFU, EDEM3 / Fold change vs veh, EDEM3 / RFU, TMEM33 / Fold change vs veh, TMEM33 / RFU, WDR75 / Fold change vs veh, WDR75 / RFU, AHCTF1 / Fold change vs veh, AHCTF1 / RFU, TFRC / Fold change vs veh, TFRC / RFU, ZDHHC17 / Fold change vs veh, ZDHHC17 / RFU, NOM1 / Fold change vs veh, NOM1 / RFU, ARL8B / Fold change vs veh, ARL8B / RFU, ZBTB11 / Fold change vs veh, ZBTB11 / RFU, TAMM41 / Fold change vs veh, TAMM41 / RFU, KIAA1704 /// LOC100996395 / Fold change vs veh, KIAA1704 /// LOC100996395 / RFU, ING1 / Fold change vs veh, ING1 / RFU, TRMT61B / Fold change vs veh, TRMT61B / RFU, FUBP3 / Fold change vs veh, FUBP3 / RFU, TP53 / Fold change vs veh, TP53 / RFU, TNKS2 / Fold change vs veh, TNKS2 / RFU, ZFP14 / Fold change vs veh, ZFP14 / RFU, ACTR2 / Fold change vs veh, ACTR2 / RFU, PPP3R1 / Fold change vs veh, PPP3R1 / RFU, PIK3R1 / Fold change vs veh, PIK3R1 / RFU, HNRNPA1 / Fold change vs veh, HNRNPA1 / RFU, RNF170 / Fold change vs veh, RNF170 / RFU, ZNF28 / Fold change vs veh, ZNF28 / RFU, RNGTT / Fold change vs veh, RNGTT / RFU, OGT / Fold change vs veh, OGT / RFU, BRD1 / Fold change vs veh, BRD1 / RFU, MARS / Fold change vs veh, MARS / RFU, ZNF655 / Fold change vs veh, ZNF655 / RFU, FAHD1 / Fold change vs veh, FAHD1 / RFU, BDP1 / Fold change vs veh, BDP1 / RFU, LRRCC1 / Fold change vs veh, LRRCC1 / RFU, ARID1A / Fold change vs veh, ARID1A / RFU, ZNF146 / Fold change vs veh, ZNF146 / RFU, ZNF330 / Fold change vs veh, ZNF330 / RFU, GPN3 / Fold change vs veh, GPN3 / RFU, C9orf123 / Fold change vs veh, C9orf123 / RFU, N4BP2L2 / Fold change vs veh, N4BP2L2 / RFU, ARFIP1 / Fold change vs veh, ARFIP1 / RFU, FAM179B / Fold change vs veh, FAM179B / RFU, BCL10 / Fold change vs veh, BCL10 / RFU, UHRF1BP1L / Fold change vs veh, UHRF1BP1L / RFU, BET1 / Fold change vs veh, BET1 / RFU, CNOT2 / Fold change vs veh, CNOT2 / RFU, ZNF268 / Fold change vs veh, ZNF268 / Fold change vs veh, ZNF507 / RFU, DGCR2 / Fold change vs veh, DGCR2 / RFU, WDSUB1 / Fold change vs veh, WDSUB1 / Fold change vs veh, HSP90B1 /// MIR3652 / RFU, ADSS / Fold change vs veh, ADSS / RFU, GK / Fold change vs veh, GK / RFU, ZNF148 / Fold change vs veh, ZNF148 / RFU, TAF9 / Fold change vs veh, TAF9 / RFU, SLC1A5 / Fold change vs veh, SLC1A5 / RFU, SLMO2 / Fold change vs veh, SLMO2 / RFU, ABCC4 / Fold change vs veh, ABCC4 / RFU, LOC101060439 /// RAP1B / Fold change vs veh, LOC101060439 /// RAP1B / RFU, RFX7 / Fold change vs veh, RFX7 / RFU, GTPBP10 / Fold change vs veh, GTPBP10 / RFU, CNEP1R1 / Fold change vs veh, CNEP1R1 / RFU, BIVM-ERCC5 /// ERCC5 / Fold change vs veh, BIVM-ERCC5 /// ERCC5 / RFU, ILF3 / Fold change vs veh, ILF3 / RFU 11762660_at / Fold change /veh 11762660_at / RFU VCAN (11757783_s_at) / Fold change /veh VCAN (11757783_s_at) / RFU DDX43 (11728927_at) / Fold change /veh DDX43 (11728927_at) / RFU KRT8 (11758188_x_at) / Fold change /veh KRT8 (11758188_x_at) / RFU NKD1 (11759106_at) / Fold change /veh NKD1 (11759106_at) / RFU SRD5A1 (11742802_a_at) / Fold change /veh SRD5A1 (11742802_a_at) / RFU TPSAB1 /// TPSB2 (11721975_s_at) / Fold change /veh TPSAB1 /// TPSB2 (11721975_s_at) / RFU GSTM3 (11746129_a_at) / Fold change /veh GSTM3 (11746129_a_at) / RFU IL23R (11737362_x_at) / Fold change /veh IL23R (11737362_x_at) / RFU TMEM51 (11727254_a_at) / Fold change /veh TMEM51 (11727254_a_at) / RFU PIWIL2 (11732686_x_at) / Fold change /veh PIWIL2 (11732686_x_at) / RFU ORM1 (11744905_x_at) / Fold change /veh ORM1 (11744905_x_at) / RFU CCDC152 (11743942_at) / Fold change /veh CCDC152 (11743942_at) / RFU ECM1 (11717891_a_at) / Fold change /veh ECM1 (11717891_a_at) / RFU IL23R (11748794_a_at) / Fold change /veh IL23R (11748794_a_at) / RFU TNFAIP8L3 (11732012_x_at) / Fold change /veh TNFAIP8L3 (11732012_x_at) / RFU MBOAT4 (11741988_at) / Fold change /veh MBOAT4 (11741988_at) / RFU 11764193_at / Fold change /veh 11764193_at / RFU TMEM53 (11763286_at) / Fold change /veh TMEM53 (11763286_at) / RFU MAGEB2 (11727129_at) / Fold change /veh MAGEB2 (11727129_at) / RFU TMEM200A (11744735_a_at) / Fold change /veh TMEM200A (11744735_a_at) / RFU CCDC152 (11751479_a_at) / Fold change /veh CCDC152 (11751479_a_at) / RFU FAM211A (11726209_a_at) / Fold change /veh FAM211A (11726209_a_at) / RFU RGS16 (11746705_a_at) / Fold change /veh RGS16 (11746705_a_at) / RFU VCAN (11755009_s_at) / Fold change /veh VCAN (11755009_s_at) / RFU RHOB (11743442_s_at) / Fold change /veh RHOB (11743442_s_at) / RFU RGS16 (11720943_a_at) / Fold change /veh RGS16 (11720943_a_at) / RFU RGS16 (11720944_at) / Fold change /veh RGS16 (11720944_at) / RFU, VPS4B / Fold change vs veh, VPS4B / RFU, CREB1 / Fold change vs veh, CREB1 / RFU, DNAJC13 / Fold change vs veh, DNAJC13 / RFU, GNAQ / Fold change vs veh, GNAQ / RFU, CDK5R1 / Fold change vs veh, CDK5R1 / RFU, ZRANB3 / Fold change vs veh, ZRANB3 / RFU, CUL4A / Fold change vs veh, CUL4A / RFU, CCNY / Fold change vs veh, CCNY / RFU, UFL1 / Fold change vs veh, UFL1 / RFU, COG3 / Fold change vs veh, COG3 / RFU, DIAPH2 / Fold change vs veh, DIAPH2 / RFU, SKA2 / Fold change vs veh, SKA2 / RFU, AFF3 / Fold change vs veh, AFF3 / RFU, LMF1 / Fold change vs veh, LMF1 / RFU, IPO11 / Fold change vs veh, IPO11 / RFU, DFFB / Fold change vs veh, DFFB / RFU, FOXP1 / Fold change vs veh, FOXP1 / RFU, CARD8 / Fold change vs veh, CARD8 / RFU, STRN3 / Fold change vs veh, STRN3 / RFU, ADK / Fold change vs veh, ADK / RFU, RASSF2 / Fold change vs veh, RASSF2 / RFU, WIPF1 / Fold change vs veh, WIPF1 / RFU, LARP1B / Fold change vs veh, LARP1B / RFU, RASA1 / Fold change vs veh, RASA1 / RFU, RB1 / Fold change vs veh, RB1 / RFU, PPFIA1 / Fold change vs veh, PPFIA1 / RFU, MAT2A / Fold change vs veh, MAT2A / RFU, CCT5 / Fold change vs veh, CCT5 / RFU, WDR92 / Fold change vs veh, WDR92 / RFU, CUX1 / Fold change vs veh, CUX1 / RFU, TTC7A / Fold change vs veh, TTC7A / RFU, TMEM135 / Fold change vs veh, TMEM135 / RFU, DEPTOR / Fold change vs veh, DEPTOR / RFU, CPM / Fold change vs veh, CPM / RFU, DNAJB6 / Fold change vs veh, DNAJB6 / RFU, CACNA2D3 / Fold change vs veh, CACNA2D3 / RFU, DTX4 / Fold change vs veh, DTX4 / RFU, TFCP2 / Fold change vs veh, TFCP2 / RFU, GMCL1 /// GMCL1P1 / Fold change vs veh, GMCL1 /// GMCL1P1 / RFU, AEBP2 / Fold change vs veh, AEBP2 / RFU, SNHG1 /// SNORD22 /// SNORD25 /// SNORD26 /// SNORD27 /// SNORD28 /// SNORD29 /// SNORD31 / Fold change vs veh, SNHG1 /// SNORD22 /// SNORD25 /// SNORD26 /// SNORD27 /// SNORD28 /// SNORD29 /// SNORD31 / Fold change (Aza/veh), C12orf56 (ProbeSet 11735607_a_at) / Fold change (ACY-1035/veh), C12orf56 (ProbeSet 11735607_a_at) / Fold change (Aza/veh), FGFR1OP (ProbeSet 11751329_s_at) / Fold change (ACY-1035/veh), FGFR1OP (ProbeSet 11751329_s_at) / Fold change (Aza/veh), VPS36 (ProbeSet 11739960_a_at) / Fold change (ACY-1035/veh), VPS36 (ProbeSet 11739960_a_at) / RFU SYPL1 (11715823_x_at) / Fold change /veh SYPL1 (11715823_x_at) / RFU IGFBP7 (11715501_s_at) / Fold change /veh IGFBP7 (11715501_s_at) / RFU REEP3 (11722064_at) / Fold change /veh REEP3 (11722064_at) / RFU IGLL1 (11728026_x_at) / Fold change /veh IGLL1 (11728026_x_at): dose or concentration left out as unconfirmed
Conditions: MV-4-11 cells, 48 hours

For `Nc1ncn([C@@H]2O[C@H](CO)[C@@H](O)[C@H]2O)c(=O)n1` [azacitidine], the “RFU MYO3A (11730013_a_at)” value was 81.22 RFU.
